Measured values published in patent US11091428B2 (HAPLOGEN GMBH, priority 2016, dated 2021).

Columns and labels:
PLA2G16 = molecular target: T1, PLA2G16 (Homo sapiens, UniProt P53816); assay: Enzyme activity assay for PLA2G16 (Red/Green BODIPY PC-A2 fluorescence); format: biochemical; conditions: His-tagged PLA2G16, 4 min pre-incubation, 2 nM to 50 μM; read-out: IC50 values of the compounds determined in the enzyme activity assay for PLA2G16
T1 construct: Hexa-His (N); made in house; host or cells: E. coli BL21(DE3)
T1 sequence (P53816 1-162): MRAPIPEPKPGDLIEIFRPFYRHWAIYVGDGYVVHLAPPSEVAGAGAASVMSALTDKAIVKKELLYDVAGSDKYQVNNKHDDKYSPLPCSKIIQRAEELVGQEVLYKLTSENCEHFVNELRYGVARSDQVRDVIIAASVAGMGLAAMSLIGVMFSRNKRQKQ
How it was run: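 IC50 from non-linear fits of fluorescence rise (480/530 nm, 10 min) after adding Red/Green BODIPY PC-A2 mixed with DOPC/DOPG/cholesterol liposomes. Recombinant His-tagged human enzyme, bacterially expressed, was first exposed to inhibitor (2 nM–50 μM final) for 4 min in 50 mM Tris pH 8.5, 100 mM NaCl, 5 mM glutathione.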

[1] = test system: picornaviruses (CVB1, HRV-A2, HRV-A23, EV-68); assay: Anti-picornavirus cytopathic effect (CPE) reduction assay on HeLa H1 cells; format: cell-based; conditions: Enterovirus B, HeLa H1, 48 h, HeLa H1 cells, 48 h, category from averaging the EC50 values from four picornaviruses (CVB1, HRV-A2, HRV-A23, EV68); read-out: EC50 values of the compounds determined in the anti-picornavirus assay
How it was run: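 Cytopathic-effect protection: EC50 from non-linear regression of cell viability (CellTiterBlue, 560/590 nm) 48 h post-infection, scaled between infected and mock-infected vehicle wells. Compound dilutions added to HeLa H1 cells 2 h before virus (MOI causing complete CPE within 2 days), in DMEM + 2% FBS; categories average the four viruses.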

Which results are given for `CCC1CC(=O)N(Cc2ccccc2)C1C(=O)C(=O)NC1CCOCC1` (stereo not drawn) [FP 344, 2-(1-Benzyl-3-ethyl-5-oxopyrrolidin-2-yl)-N-(oxan-4-yl)-2-oxoacetamide]?
IC50 (PLA2G16): < 1 µM; EC50 [1]: < 1 µM

How did the IC50 (PLA2G16) turn out when `O=C(NC1CC1)C(=O)C1N(Cc2ccccc2)C(=O)CC12CC2` (stereo not drawn) [FP 345, 2-{5-Benzyl-6-oxo-5-azaspiro[2.4]heptan-4-yl}-N-cyclopropyl-2-oxoacetamide] was run?
The IC50 was less than 1 µM.

And the EC50 [1]?
The EC50 was less than 1 µM.

How did the IC50 (PLA2G16) turn out when `O=C(N[C@@H]1C[C@@H]1F)C(=O)C1N(Cc2ccccc2)C(=O)CC12CC2` (stereo partly drawn) [FP 346, 2-{5-Benzyl-6-oxo-5-azaspiro[2.4]heptan-4-yl}-N-[(1R,2S)-2-fluorocyclopropyl]-2-oxoacetamide] was run?
The IC50 was less than 1 µM.

What about the EC50 [1] of the same compound?
Its EC50 is less than 1 µM.

With `CNC(=O)C(=O)C1N(Cc2ccccc2)C(=O)CC12CC2` (stereo not drawn) [FP 347, 2-{5-Benzyl-6-oxo-5-azaspiro[2.4]heptan-4-yl}-N-methyl-2-oxoacetamide] as the compound, how does the IC50 (PLA2G16) read?
Its IC50 is less than 1 µM.

What about the EC50 [1] of the same compound?
The EC50 was less than 1 µM.

How did the IC50 (PLA2G16) turn out when `CCNC(=O)C(=O)C1N(Cc2ccccc2)C(=O)CC12CC2` (stereo not drawn) [FP 348, 2-{5-Benzyl-6-oxo-5-azaspiro[2.4]heptan-4-yl}-N-ethyl-2-oxoacetamide] was run?
Its IC50 is less than 1 µM.

What about the EC50 [1] of the same compound?
The EC50 was less than 1 µM.

`CC1(C)CC(=O)N(Cc2ccccc2)C1C(=O)C(=O)NC1CC1` (stereo not drawn) [FP 349, 2-(1-Benzyl-3,3-dimethyl-5-oxopyrrolidin-2-yl)-N-cyclopropyl-2-oxoacetamide] was tested. Which IC50 (PLA2G16) did it give?
Its IC50 is less than 1 µM.

What about the EC50 [1] of the same compound?
The EC50 was 1 to 10 µM.
